Experimental data: ChEMBL document CHEMBL4043088, “Design of novel HIV-1 protease inhibitors incorporating isophthalamide-derived P2-P3 ligands: Synthesis, biological evaluation and X-ray structural studies of inhibitor-HIV-1 protease complex” (Bioorg Med Chem, 2017)

Assays:
[1] = Inhibition of HIV1 protease using fluorogenic substrate by continuous fluorometric assay; design: species or system Human immunodeficiency virus 1
[2] = tested on: Human immunodeficiency virus 1; assay: Antiviral activity against HIV1 LAI infected in human MT2 cells assessed as reduction in p24 Gag protein production incubated for 6 days by automated chemiluminescent enzyme immunoassay; assay type: functional, cell-based; conditions: Human immunodeficiency virus 1, LAI, MT2, 144 h

Structure (SMILES) | Ki [1] | IC50 [2]
COc1ccc(S(=O)(=O)N(CC(C)C)C[C@@H](O)[C@H](Cc2ccccc2)NC(=O)c2cccc(C(=O)N(C)Cc3nc(C)oc3C)c2)cc1 | 0.21 nM | 31 nM
COc1ccc(S(=O)(=O)N(CC(C)C)C[C@@H](O)[C@H](Cc2ccccc2)NC(=O)c2cccc(C(=O)N(C)Cc3nc(C)co3)c2)cc1 | 0.63 nM | 581 nM
CNc1cc(C(=O)N[C@@H](Cc2ccccc2)[C@H](O)CN(CC(C)C)S(=O)(=O)c2ccc(OC)cc2)cc(C(=O)N(C)Cc2nc(C)oc2C)c1 | 5.08 nM | 600 nM
COc1ccc(S(=O)(=O)N(CC(C)C)C[C@@H](O)[C@H](Cc2ccccc2)NC(=O)c2ccc(C(=O)N(C)Cc3nc(C)oc3C)cc2)cc1 | 70 nM | > 1000 nM
COc1ccc(S(=O)(=O)N(CC(C)C)C[C@@H](O)[C@H](Cc2ccccc2)NC(=O)c2cccc(C(=O)N(C)Cc3csc(C)n3)c2)cc1 | 0.107 nM | 32 nM
COc1ccc(S(=O)(=O)N(CC(C)C)C[C@@H](O)[C@H](Cc2ccccc2)NC(=O)c2ccccc2C(=O)N(C)Cc2nc(C)oc2C)cc1 | 629 nM | > 1000 nM
COc1ccc(S(=O)(=O)N(CC(C)C)C[C@@H](O)[C@H](Cc2ccccc2)NC(=O)c2cccc(C(=O)N3CCC[C@@H]3c3nc(C)cs3)c2)cc1 | 0.025 nM | 69 nM
COc1ccc(S(=O)(=O)N(CC(C)C)C[C@@H](O)[C@H](Cc2ccccc2)NC(=O)c2cccc(C(=O)N(C)Cc3coc(C)n3)c2)cc1 | 0.64 nM | 23 nM
COCc1coc([C@H]2CCCN2C(=O)c2cccc(C(=O)N[C@@H](Cc3ccccc3)[C@H](O)CN(CC(C)C)S(=O)(=O)c3ccc(OC)cc3)c2)n1 | 0.8 nM | 327 nM
COc1ccc(S(=O)(=O)N(CC(C)C)C[C@@H](O)[C@H](Cc2ccccc2)NC(=O)c2cc(O)cc(C(=O)N(C)Cc3nc(C)oc3C)c2)cc1 | 0.51 nM | 290 nM

Second part, the molecule after the results:

Ki [1] | IC50 [2] | Structure (SMILES)
30.8 nM | > 1000 nM | COc1ccc(S(=O)(=O)N(CC(C)C)C[C@@H](O)[C@H](Cc2ccccc2)NC(=O)c2cccc(C(=O)N3CCC[C@H]3c3nc(C)cs3)c2)cc1
0.79 nM | 164 nM | Cc1csc([C@H]2CCCN2C(=O)c2cccc(C(=O)N[C@@H](Cc3ccccc3)[C@H](O)CN(CC(C)C)S(=O)(=O)c3ccc(CO)cc3)c2)n1
2.5 nM | – | COc1ccc(S(=O)(=O)N(CC(C)C)C[C@@H](O)[C@H](Cc2ccccc2)NC(=O)c2cncc(C(=O)N3CCC[C@@H]3c3nc(C)cs3)c2)cc1
0.53 nM | 221 nM | COc1ccc(S(=O)(=O)N(CC(C)C)C[C@@H](O)[C@H](Cc2ccccc2)NC(=O)c2cccc(C(=O)N3CCCC[C@@H]3c3nc(C)cs3)c2)cc1
0.4 nM | 109 nM | COc1ccc(S(=O)(=O)N(CC(C)C)C[C@@H](O)[C@H](Cc2ccccc2)NC(=O)c2cccc(C(=O)N3CC[C@H](c4nc(C)cs4)C3)c2)cc1
1.61 nM | 189 nM | Cc1csc([C@H]2CCCN2C(=O)c2cccc(C(=O)N[C@@H](Cc3ccccc3)[C@H](O)CN(CC(C)C)S(=O)(=O)c3ccc(N)cc3)c2)n1
23.6 nM | – | COc1ccc(S(=O)(=O)N(CC(C)C)C[C@@H](O)[C@H](Cc2ccccc2)NC(=O)c2cccc(CN3CCC[C@@H]3c3nc(C)cs3)c2)cc1
0.76 nM | 32 nM | COc1ccc(S(=O)(=O)N(CC(C)C)C[C@@H](O)[C@H](Cc2ccccc2)NC(=O)c2cccc(C(=O)N3CSC[C@@H]3c3nc(C)cs3)c2)cc1
0.49 nM | 280 nM | COc1ccc(S(=O)(=O)N(CC(C)C)C[C@@H](O)[C@H](Cc2ccccc2)NC(=O)c2cccc(C(=O)N3CC[C@@H](c4nc(C)cs4)C3)c2)cc1
0.41 nM | 33 nM | COc1ccc(S(=O)(=O)N(CC(C)C)C[C@@H](O)[C@H](Cc2ccccc2)NC(=O)c2cccc(C(=O)N3CCC[C@@H]3c3nc(C)co3)c2)cc1
